Each molecule was assayed against recombinant human Nav1.7 (Homo sapiens (Human), UniProt Q15858) (assay: FRET-based membrane potential assay, recombinant human sodium channel Nav1.7). Details: HEK293 cells stably expressing recombinant human Nav1.7; veratridine + scorpion venom depolarization; read-out: FRET-Membrane Potential Nav1.7 IC50.
Type: cell-based
Procedure, shortened: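 Channel activation used veratridine at its EC80, set by a dilution curve each experiment, together with Leiurus scorpion venom, added 3 min after compound. Membrane-potential ratio signals from FLIPR Tetra in HEPES-buffered HBSS were fitted to a four-parameter Hill equation for percent inhibition and IC50.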

recombinant human Nav1.7, sequence (Q15858 whole entry): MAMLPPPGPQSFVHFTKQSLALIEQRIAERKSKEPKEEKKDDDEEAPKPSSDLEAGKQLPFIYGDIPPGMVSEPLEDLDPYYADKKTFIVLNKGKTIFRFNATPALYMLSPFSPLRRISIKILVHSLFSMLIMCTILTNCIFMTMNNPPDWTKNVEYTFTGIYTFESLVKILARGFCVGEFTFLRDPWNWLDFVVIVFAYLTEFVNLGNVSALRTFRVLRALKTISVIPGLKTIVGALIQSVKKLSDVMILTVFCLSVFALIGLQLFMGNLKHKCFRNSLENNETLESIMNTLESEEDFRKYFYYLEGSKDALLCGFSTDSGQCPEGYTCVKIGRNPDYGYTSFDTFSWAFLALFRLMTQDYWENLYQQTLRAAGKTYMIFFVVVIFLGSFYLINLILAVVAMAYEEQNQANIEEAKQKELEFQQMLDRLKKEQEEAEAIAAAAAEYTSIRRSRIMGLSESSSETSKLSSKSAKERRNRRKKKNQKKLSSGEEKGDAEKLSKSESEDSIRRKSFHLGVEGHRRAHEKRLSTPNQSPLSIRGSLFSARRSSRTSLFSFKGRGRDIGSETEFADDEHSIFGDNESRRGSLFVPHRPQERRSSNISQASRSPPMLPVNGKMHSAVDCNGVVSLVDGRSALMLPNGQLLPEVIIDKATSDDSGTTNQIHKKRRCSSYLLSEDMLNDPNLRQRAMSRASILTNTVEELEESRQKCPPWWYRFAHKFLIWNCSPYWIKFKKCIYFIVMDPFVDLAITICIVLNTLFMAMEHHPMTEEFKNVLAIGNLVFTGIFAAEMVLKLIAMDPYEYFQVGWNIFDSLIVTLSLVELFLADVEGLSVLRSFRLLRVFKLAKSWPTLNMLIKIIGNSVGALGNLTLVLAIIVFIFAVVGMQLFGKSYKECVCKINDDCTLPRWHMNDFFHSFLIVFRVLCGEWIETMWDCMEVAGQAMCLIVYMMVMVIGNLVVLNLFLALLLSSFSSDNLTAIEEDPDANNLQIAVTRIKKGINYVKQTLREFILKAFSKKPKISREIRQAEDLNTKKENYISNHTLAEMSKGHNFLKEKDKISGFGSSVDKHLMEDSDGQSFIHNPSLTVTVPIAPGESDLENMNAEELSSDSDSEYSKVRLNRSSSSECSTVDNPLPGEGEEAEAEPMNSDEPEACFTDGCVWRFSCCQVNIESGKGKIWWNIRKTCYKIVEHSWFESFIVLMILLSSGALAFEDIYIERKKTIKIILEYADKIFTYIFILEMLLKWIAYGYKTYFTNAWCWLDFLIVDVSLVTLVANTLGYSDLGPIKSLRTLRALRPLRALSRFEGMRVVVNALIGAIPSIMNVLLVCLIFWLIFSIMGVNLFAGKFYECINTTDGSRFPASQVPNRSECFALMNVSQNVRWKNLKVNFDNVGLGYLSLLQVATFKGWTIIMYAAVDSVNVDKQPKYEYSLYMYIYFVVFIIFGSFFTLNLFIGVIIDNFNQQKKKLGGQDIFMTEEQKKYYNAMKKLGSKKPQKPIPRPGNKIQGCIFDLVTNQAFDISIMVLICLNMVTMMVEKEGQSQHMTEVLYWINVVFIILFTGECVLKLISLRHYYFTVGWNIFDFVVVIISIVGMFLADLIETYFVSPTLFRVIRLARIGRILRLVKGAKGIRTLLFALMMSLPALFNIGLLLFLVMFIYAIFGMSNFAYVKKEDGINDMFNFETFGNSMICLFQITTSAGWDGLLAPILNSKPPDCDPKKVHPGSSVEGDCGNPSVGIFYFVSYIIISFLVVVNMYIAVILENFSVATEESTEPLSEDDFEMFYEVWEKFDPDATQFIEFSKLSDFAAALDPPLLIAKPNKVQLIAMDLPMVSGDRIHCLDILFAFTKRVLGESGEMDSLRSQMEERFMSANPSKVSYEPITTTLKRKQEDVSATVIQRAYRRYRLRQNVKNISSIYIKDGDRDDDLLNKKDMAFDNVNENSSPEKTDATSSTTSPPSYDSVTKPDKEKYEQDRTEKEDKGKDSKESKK

Compared with `O=C(c1ccc2cc(Oc3ccc(C(F)(F)F)cn3)ccc2n1)N1CCC(C(F)(F)F)C1` (centres unmarked) [Example 414, (6-{[5-(trifluoromethyl)pyridin-2-yl]oxy}quinolin-2-yl)[3-(trifluoromethyl)pyrrolidin-1-yl]methanone], `O=C(c1ccc2cc(Oc3ccc(C(F)(F)F)cn3)ccc2n1)N1CC(F)C(F)C1` (centres unmarked) [Example 415, (3,4-difluoropyrrolidin-1-yl)(6-{[5-(trifluoromethyl)pyridin-2-yl]oxy}quinolin-2-yl)methanone] is 3.1-fold lower in IC50: 5020 nM for the first, 1610 nM for the second.

First: O=C1CCC(NC(=O)c2ccc3cc(Oc4ccc(C(F)(F)F)cn4)ccc3n2)CN1 (centres unmarked) [Example 416, N-(6-oxopiperidin-3-yl)-6-{[5-(trifluoromethyl)pyridin-2-yl]oxy}quinoline-2-carboxamide]
Second: O=C(NC1CCSC1)c1ccc2cc(Oc3ccc(C(F)(F)F)cn3)ccc2n1 (centres unmarked) [Example 420, N-(tetrahydrothiophen-3-yl)-6-{[5-(trifluoromethyl)pyridin-2-yl]oxy}quinoline-2-carboxamide]
The IC50 of the first is 3.5-fold lower: 700 nM for the first, 2430 nM for the second.

First: O=C(c1ccc2cc(Oc3ccc(C(F)(F)F)cn3)ccc2n1)N1CCNC2(CCC2)C1 [Example 418, 5,8-diazaspiro[3.5]non-8-yl(6-{[5-(trifluoromethyl)pyridin-2-yl]oxy}quinolin-2-yl)methanone]
Second: CS(=O)(=O)NC1CN(C(=O)c2ccc3cc(Oc4ccc(C(F)(F)F)cn4)ccc3n2)C1 [Example 428, N-{1-[(6-{[5-(trifluoromethyl)pyridin-2-yl]oxy}quinolin-2-yl)carbonyl]azetidin-3-yl}methanesulfonamide]
The IC50 of the first is 19-fold lower: 539 nM for the first, 10300 nM for the second. The first is the more potent here.

Compared with `CN(C(=O)c1ccc2cc(Oc3ccc(C(F)(F)F)cn3)ccc2n1)C1CCS(=O)(=O)C1` (centres unmarked) [Example 419, N-(1,1-dioxidotetrahydrothiophen-3-yl)-N-methyl-6-{[5-(trifluoromethyl)pyridin-2-yl]oxy}quinoline-2-carboxamide], `CC1(O)CC(NC(=O)c2ccc3cc(Oc4ccc(C(F)(F)F)cn4)ccc3n2)C1` (centres unmarked) [Example 426, N-(3-hydroxy-3-methylcyclobutyl)-6-{[5-(trifluoromethyl)pyridin-2-yl]oxy}quinoline-2-carboxamide] is 12-fold lower in IC50: 11900 nM for the first, 972 nM for the second. The second is the more potent here.

`O=C(NCCN1CCNC1=O)c1ccc2cc(Oc3ccc(C(F)(F)F)cn3)ccc2n1` [Example 421, N-[2-(2-oxoimidazolidin-1-yl)ethyl]-6-{[5-(trifluoromethyl)pyridin-2-yl]oxy}quinoline-2-carboxamide] and `O=C(NCCn1ccnc1)c1ccc2cc(Oc3ccc(C(F)(F)F)cn3)ccc2n1` [Example 423, N-[2-(1H-imidazol-1-yl)ethyl]-6-{[5-(trifluoromethyl)pyridin-2-yl]oxy}quinoline-2-carboxamide] are within 1.5-fold of each other in IC50: 1060 nM for the first, 830 nM for the second.

Compared with `O=C(NCCNc1ccccn1)c1ccc2cc(Oc3ccc(C(F)(F)F)cn3)ccc2n1` [Example 422, N-[2-(pyridin-2-ylamino)ethyl]-6-{[5-(trifluoromethyl)pyridin-2-yl]oxy}quinoline-2-carboxamide], `COCCOC1CN(C(=O)c2ccc3cc(Oc4ccc(C(F)(F)F)cn4)ccc3n2)C1` [Example 427, [3-(2-methoxyethoxy)azetidin-1-yl](6-{[5-(trifluoromethyl)pyridin-2-yl]oxy}quinolin-2-yl)methanone] is higher in IC50: 617 nM for the first, greater than 20000 nM for the second. The first is the more potent here.

Same assay, conditions: read-out: FRET-Membrane Potential Nav1.7 IC50

Going from `O=C(NCC1CCN1)c1ccc2cc(Oc3ccc(C(F)(F)F)cn3)ccc2n1` (centres unmarked) [Example 424, N-(azetidin-2-ylmethyl)-6-{[5-(trifluoromethyl)pyridin-2-yl]oxy}quinoline-2-carboxamide] to `O=C(N[C@H]1CS(=O)(=O)C[C@@H]1O)c1ccc2cc(Oc3ccc(C(F)(F)F)cn3)ccc2n1` [Example 425, N-[(3R,4R)-4-hydroxy-1,1-dioxidotetrahydrothiophen-3-yl]-6-{[5-(trifluoromethyl)pyridin-2-yl]oxy}quinoline-2-carboxamide], the IC50 rises from 1310 nM to 9090 nM (6.9-fold). The first is the more potent here.

— patent US9452986B2, “6-heteroaryloxy- or 6-aryloxy-quinoline-2-carboxamides and method of use” (AbbVie Inc., priority 2014, dated 2016)
